For this test, the target named is Reverse transcriptase protein (Human immunodeficiency virus 1, UniProt Q9WJQ1). Nature of the test: In-vitro HIV-1 RT Screening. The procedure: The reaction mixture was set with template primer complex, RT enzyme and dNTPs in a lysis buffer with or without inhibitors. The reaction mixture was incubated at 37 °C for 1 h and then transferred to streptavidine-coated microtitre plate (MTP). The biotin-labeled dNTPs that were incorporated in the template due to activity of RT, bound to streptavidine. The unbound dNTPs were washed using wash buffer and anti-DIG-POD was added to the MTP. The DIG-labeled dNTPs incorporated in the template were bound to an anti-DIG-POD antibody. The unbound anti-DIG-POD was washed again with washing buffer and the peroxide substrate (ABST) was added to the MTP. A colored reaction product was produced during the cleavage of the substrate catalyzed by a peroxide enzyme.

We go through twelve compounds from BindingDB's records for doi:10.1016/j.bioorg.2015.12.005 (Birla Institute of Technology, 2016).

In general, IC50 refers to the concentration that gives 50% inhibition. Low readings indicate greater potency in that assay, high ones weaker potency in that assay. For `O=C(Nc1ccccc1F)OC(CN1CCCc2ccccc21)c1ccc(Cl)cc1` (configuration not stated) [1-(4-chlorophenyl)-2-(3,4-dihydroquinolin-1(2H)-yl)ethyl 2-fluorophenylcarbamate (6e)], 90.3 µM corresponded to half-maximal inhibition (IC50).

Compound `O=C(Nc1cccc(F)c1)OC(CN1CCCc2ccccc21)c1ccc(Cl)cc1` (configuration not stated) [1-(4-chlorophenyl)-2-(3,4-dihydroquinolin-1(2H)-yl)ethyl 3-fluorophenylcarbamate (6f)] came in with a concentration for half-maximal inhibition (IC50) of 72.1 µM.

In the case of `O=C(Nc1cccc([N+](=O)[O-])c1)OC(CN1CCCc2ccccc21)c1ccc(Cl)cc1` (configuration not stated) [1-(4-chlorophenyl)-2-(3,4-dihydroquinolin-1(2H)-yl)ethyl 3-nitrophenylcarbamate (6i)], half-maximal inhibition (IC50) required 14.9 µM.

`O=C(Nc1ccc(Cl)cc1)OC(CN1CCCc2ccccc21)c1ccc(Cl)cc1` (configuration not stated) [1-(4-chlorophenyl)-2-(3,4-dihydroquinolin-1(2H)-yl)ethyl 4-chlorophenylcarbamate (6h)] registered a 50% inhibitory concentration (IC50) of 23.8 µM.

`O=C(Nc1ccc(F)cc1)OC(CN1CCCc2ccccc21)c1ccc(Cl)cc1` (configuration not stated) [1-(4-chlorophenyl)-2-(3,4-dihydroquinolin-1(2H)-yl)ethyl 4-fluorophenylcarbamate (6g)] came in with a 50% inhibitory concentration (IC50) of 48.6 µM.

Compound `O=C(Nc1ccc([N+](=O)[O-])cc1)OC(CN1CCCc2ccccc21)c1ccc(Cl)cc1` (configuration not stated) [1-(4-chlorophenyl)-2-(3,4-dihydroquinolin-1(2H)-yl)ethyl 4-nitrophenylcarbamate (6j)] registered a 50% inhibitory concentration (IC50) of 5.42 µM.

`Cc1cccc(NC(=O)OC(CN2CCCc3ccccc32)c2ccc(Cl)cc2)c1` (configuration not stated) [1-(4-chlorophenyl)-2-(3,4-dihydroquinolin-1(2H)-yl)ethyl m-tolylcarbamate (6c)]: it took 68.3 µM to reach half-maximal inhibition (IC50).

`Cc1ccccc1NC(=O)OC(CN1CCCc2ccccc21)c1ccc(Cl)cc1` (configuration not stated) [1-(4-chlorophenyl)-2-(3,4-dihydroquinolin-1(2H)-yl)ethyl o-tolylcarbamate (6b)] gave an IC50 of 8.12 µM.

The compound `Cc1ccc(NC(=O)OC(CN2CCCc3ccccc32)c2ccc(Cl)cc2)cc1` (configuration not stated) [1-(4-chlorophenyl)-2-(3,4-dihydroquinolin-1(2H)-yl)ethyl p-tolylcarbamate (6d)] showed an IC50 of 83.6 µM.

`O=C(Nc1ccccc1)OC(CN1CCCc2ccccc21)c1ccc(Cl)cc1` (configuration not stated) [1-(4-chlorophenyl)-2-(3,4-dihydroquinolin-1(2H)-yl)ethyl phenylcarbamate (6a)] returned an IC50 of 37 µM.

As for `CCOC(=O)c1ccc(NC(=O)OC(CN2CCCc3ccccc32)c2ccc(Cl)cc2)cc1` (configuration not stated) [Ethyl4-((1-(4-chlorophenyl)-2-(3,4-dihydroquinolin-1(2H)-yl)ethoxy)carbonylamino) benzoate (6l)], half-maximal inhibition (IC50) was put at 12.3 µM.

Regarding `CCOC(=O)c1ccccc1NC(=O)OC(CN1CCCc2ccccc21)c1ccc(Cl)cc1` (configuration not stated) [Ethyl 2-((1-(4-chlorophenyl)-2-(3,4-dihydroquinolin-1(2H)-yl)ethoxy)carbonylamino) benzoate (6k)], the 50% inhibitory concentration (IC50) was 39 µM.
